# Reference: US20190352664A1, “COMPOSITIONS AND METHODS FOR CONTROLLING GENE EXPRESSION” (priority 2017, published 2019)
# Tested on: Arabidopsis
# Test: Ribo-seq and RNA-seq global translatome profiling (translational efficiency TE, mORF/uORF ribo-shift) upon elf18 treatment
# Type: in vivo
# Design: key to score (Ribo-shift): Up: ribo-shift up (i.e., increased mORF/uORF ratio); Down: ribo-shift down (i.e., decreased mORF/uORF ratio)
# Settings: shift of mORF/uORF ratio, elf18 vs Mock; per uORF
row,Molecule,score (Ribo-shift)
1,"AT4G32800.1_1: uORF of AT4G32800.1; peptide SEQ ID NO: 29 (DNA ATGATAGAAACAAGAACTATCTTTTTATAA; listed as DNA, chemistry not fully specified)",Down
2,"AT3G18140.1_2: uORF of AT3G18140.1; peptide SEQ ID NO: 17 (DNA ATGGTTGGTTTAATATTTCAATCGGGATAA; listed as DNA, chemistry not fully specified)",Down
3,"AT1G72390.1_1: uORF of AT1G72390.1; peptide SEQ ID NO: 9 (DNA ATGTTTATGAATTCTTCATTGCTCTATTCTTAG; listed as DNA, chemistry not fully specified)",Down
4,"AT4G34460.1_1: uORF of AT4G34460.1; peptide SEQ ID NO: 30 (DNA ATGAACCTTCTTCTCTTCTAG; listed as DNA, chemistry not fully specified)",Up
5,"AT3G56010.1_1: uORF of AT3G56010.1; peptide SEQ ID NO: 19 (DNA ATGCGTCGCTCTTAA; listed as DNA, chemistry not fully specified)",Up
6,"AT1G30330.13: uORF of AT1G30330.1; peptide SEQ ID NO: 5 (DNA ATGAGTGGGGTGGATTAA; listed as DNA, chemistry not fully specified)",Down
7,"AT2G42950.1_1: uORF of AT2G42950.1; peptide SEQ ID NO: 12 (DNA ATGATCTTACGTGAAATTGCAGCCTAA; listed as DNA, chemistry not fully specified)",Down
8,"AT5G11790.1_1: uORF of AT5G11790.1; peptide SEQ ID NO: 33 (DNA ATGGAAAGATAA; listed as DNA, chemistry not fully specified)",Down
9,"AT4G11110.1_1: uORF of AT4G11110.1; peptide SEQ ID NO: 21 (DNA ATGATTGGCTTCTCACGATTCGATTTTTCCGGCTCCTGTTCTTAA; listed as DNA, chemistry not fully specified)",Up
10,"AT1G30330.1_1: uORF of AT1G30330.1; peptide SEQ ID NO: 4 (DNA ATGTTCTGCAACAGTTGA; listed as DNA, chemistry not fully specified)",Up
11,"AT1G12580.1_1: uORF of AT1G12580.1; peptide SEQ ID NO: 1 (DNA ATGCAGCTTGCGATTTCATAG; listed as DNA, chemistry not fully specified)",Up
12,"AT4G18570.1_1: uORF of AT4G18570.1; peptide SEQ ID NO: 23 (DNA ATGCTTTTAATTTCCATGCAAATCTCTCCTTTCTTCTCAAGTCATTTTTGA; listed as DNA, chemistry not fully specified)",Up
13,"AT3G63340.1_1: uORF of AT3G63340.1; peptide SEQ ID NO: 20 (DNA ATGAAGCAATTGTTCCTTTCAAGCATGTTTACGAGCAAAAGAGTGAAAGGGTAG; listed as DNA, chemistry not fully specified)",Down
14,"AT3G03070.1_1: uORF of AT3G03070.1; peptide SEQ ID NO: 15 (DNA ATGCGTTGTTTGGTACAGCTTCACGAACAATCTCTCTCTCGATAG; listed as DNA, chemistry not fully specified)",Down
15,"AT4G17840.1_4: uORF of AT4G17840.1; peptide SEQ ID NO: 22 (DNA ATGTTATAA; listed as DNA, chemistry not fully specified)",Up
16,"AT4G37925.1_1: uORF of AT4G37925.1; peptide SEQ ID NO: 31 (DNA ATGGTTCTGTAA; listed as DNA, chemistry not fully specified)",Riboshift Down ATGGTTCTGTAA (SEQ ID

row,Molecule,score (Ribo-shift)
1,"AT1G19270.1_3: uORF of AT1G19270.1; peptide SEQ ID NO: 3 (DNA ATGAGCAGATAG; listed as DNA, chemistry not fully specified)",Down
2,"AT1700.1_1: uORF of AT1G16700.1; peptide SEQ ID NO: 2 (DNA ATGTTCTTGTGA; listed as DNA, chemistry not fully specified)",Down
3,"AT2G34630.1_2: uORF of AT2G34630.1; peptide SEQ ID NO: 10 (DNA ATGAGCTGTCACTTCTTAGTAATAAGTTGA; listed as DNA, chemistry not fully specified)",Up
4,"AT2G47210.1_1: uORF of AT2G47210.1; peptide SEQ ID NO: 13 (DNA ATGATAGCTACCCAGTAA; listed as DNA, chemistry not fully specified)",Up
5,"AT4G26080.1_3: uORF of AT4G26080.1; peptide SEQ ID NO: 27 (DNA ATGTGTTTCTTCTTGTCTTCCTAG; listed as DNA, chemistry not fully specified)",Down
6,"ATG48300.1_1: uORF of AT1G48300.1; peptide SEQ ID NO: 6 (DNA ATGCGGCGAGGAGAAAGAGAAGGTTAA; listed as DNA, chemistry not fully specified)",Up
7,"AT4G23740.1_2: uORF of AT4G23740.1; peptide SEQ ID NO: 25 (DNA ATGGCGGTTCTTCACATTATCTTCACTGCGTAA; listed as DNA, chemistry not fully specified)",Down
8,"AT5G57460.1_1: uORF of AT5G57460.1; peptide SEQ ID NO: 37 (DNA ATGTTTCAATCTAACCATTGA; listed as DNA, chemistry not fully specified)",Up
9,"AT4G23740.1_1: uORF of AT4G23740.1; peptide SEQ ID NO: 24 (DNA ATGCCAAAAAATAAGAACAAAATTATATCCGTTGCTTGA; listed as DNA, chemistry not fully specified)",Up
10,"AT5G14930.1_1: uORF of AT5G14930.1; peptide SEQ ID NO: 34 (DNA ATGGACTCTCGTTCTCAGACATTTATTTCTCTCAGTCTTACAATATAA; listed as DNA, chemistry not fully specified)",Down
11,"AT3G15030.1_2: uORF of AT3G15030.1; peptide SEQ ID NO: 16 (DNA ATGGGTTAG; listed as DNA, chemistry not fully specified)",Down
12,"AT4G38950.1_1: uORF of AT4G38950.1; peptide SEQ ID NO: 32 (DNA ATGTGCCCCAAAAGATAA; listed as DNA, chemistry not fully specified)",Down
13,"AT3G02570.1_2: uORF of AT3G02570.1; peptide SEQ ID NO: 14 (DNA ATGCTTGAGATATTTTGTTTTTACCTCCGAGAAACGGATTTAGATTCGTAA; listed as DNA, chemistry not fully specified)",Down
14,"AT4G32660.1_1: uORF of AT4G32660.1; peptide SEQ ID NO: 28 (DNA ATGTCGTCGCGGTTCGACCCCAAGGGATTTGGCCGGTAA; listed as DNA, chemistry not fully specified)",Down
15,"AT1G59990.1_1: uORF of AT1G59990.1; peptide SEQ ID NO: 8 (nucleic acid, listed as DNA, chemistry not fully specified) DNA: ATGAAGAGAGAGACTGAAACAGAGGTTTCTTACTTTCTTCTCTGTATCTCTCATATTTTGCTTAAACCCTAA",Down
16,"AT1G59700.1_1: uORF of AT1G59700.1; peptide SEQ ID NO: 7 (nucleic acid, listed as DNA, chemistry not fully specified) DNA: ATGATATGTCCGTTTAGAAACAGACAAAATAAGAAGAAGAAGAAAGAGTCGTGGAGGATTCTTCATTCTTCCTCATCCTCTTCTTCACCGATTCATTAG",Down

# Same assay, conditions: translational efficiency fold change, elf18 vs Mock; listed as shows 5′ UTR of the transcript
row,Molecule,score (TE change)
1,"AT1G48300.1: 5′ UTR of transcript (DNA CGAGATGCGGCGAGGAGAAAGAGAAGGTTAAGGTT; listed as DNA, chemistry not fully specified)",TEup (448 had increased TEfc)
2,AT1G59990.1: 5′ UTR of transcript; DEA(D/H)-box RNA helicase family protein (nucleic acid) DNA: AGTGAGCTAATGAAGAGAGAGACTGAAACAGAGGTTTCTTACTTTCTTCTCTGTATCTCTCATATTTTGCTTAAACCCTAAAACCCTTTTTGGATTAGGTTTTCTCCAAATCTTATCCGCCGTGATAAAATCTGATTGCTTTTTTTCTTCATGAAAGTTTGATTTGTGAAACTCG,TEdown (389 genes displayed decreased TEfc (|z|≥1.5))
3,AT1G72390.1: 5′ UTR of transcript (nucleic acid) DNA: CCTTTCTCTTCCGATCGCATCTTCTTCAAAAATTTCCCACCTGTGTTTCACAAATTCCATGTTTATGAATTCTTCATTGCTCTATTCTTAGTCACCTTTGATTTCTCTCGCTTTCTATCCGATCCAATTGTTTGATGATCTTCTCTGTAACAAGCTCATAAGGTTTGAGCTTCATCTCTCTGGAGAGAATCC,TEup (448 had increased TEfc)
4,AT2G34630.1: 5′ UTR of transcript; geranyl diphosphate synthase 1 (nucleic acid) DNA: AAGCGAACAAGTCTTTGCCTCTTTGGTTTACTTTCCTCTGTTTTCGATCCATTTAGAAAATGTTATTCACGAGGAGTGTTGCTCGGATTTCTTCTAAGTTTCTGAGAAACCGTAGCTTCTATGGCTCCTCTCAATCTCTCGCCTCTCATCGGTTCGCAATCATTCCCGATCAGGGTCACTCTTGTTCTGACTCTCCACACAAGTAGGGTTACGTTTGCAGAACAACTTATTCATTGAAATCTCCGGTTTTTGGTGGATTTAGTCATCAACTCTATCACCAGAGTAGCTCCTTGGTTGAGGAGGAGCTTGACCCATTTTCGCTTGTTGCCGATGAGCTGTCACTTCTTAGTAATAAGTTGAGAGAG,TEup (448 had increased TEfc)
